Measured values reported in publication PMC3413639 (PLoS ONE, 2012).
Where two headings read alike, the source gives them in different places.

Legend:
[1] = biological target: T1, 5-HT1A receptors (Rattus norvegicus, UniProt P19327); assay: [11C]WAY-100635-PET of rats treated with 5,7-DHT, a toxicant for 5-HT neurons; conditions: 150 µg into right lateral ventricle, scan more than 2 weeks later
T1 sequence (P19327 1-422): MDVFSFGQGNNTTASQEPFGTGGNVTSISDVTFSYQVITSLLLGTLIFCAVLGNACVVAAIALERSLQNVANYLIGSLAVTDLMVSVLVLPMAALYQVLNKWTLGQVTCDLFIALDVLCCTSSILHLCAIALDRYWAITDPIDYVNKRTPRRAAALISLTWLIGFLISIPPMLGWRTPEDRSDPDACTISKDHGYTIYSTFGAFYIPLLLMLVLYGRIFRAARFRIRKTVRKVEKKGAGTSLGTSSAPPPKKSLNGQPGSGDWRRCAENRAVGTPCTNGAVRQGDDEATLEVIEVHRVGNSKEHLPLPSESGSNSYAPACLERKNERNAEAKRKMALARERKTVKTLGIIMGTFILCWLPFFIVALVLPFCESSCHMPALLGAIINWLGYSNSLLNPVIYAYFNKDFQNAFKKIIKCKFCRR

[2] = biological target: T1, 5-HT1A receptors; assay: Autoradiographic [35S]GTPγS binding in rat brain sections; assay type: biochemical; set-up: Twenty-micrometer-thick frozen brain sections were preincubated; from tissue; host or cells: rat brain (hippocampus and raphe nucleus): frozen sections or living animals
Procedure: Autoradiographic procedures were performed as described previously, with some modifications. The sections were preincubated for 15 min in 50 mM 4-(2-hydroxyethyl)-1-piperazineethanesulfonic acid (HEPES; pH 7.4) containing 10 mM NaCl, 3 mM MgCl2 and 0.2 mM ethylene glycol tetraacetic acid. A second preincubation using the same buffer containing 2 mM GDP was performed for 15 min. The sections were subsequently incubated in the same buffer containing 2 mM GDP, 0.2 mM dithiothreitol and 0.04 nM [^35S]GTPγS for 120 min. Basal [^35S]GTPγS binding was defined in the absence of test drugs. […] Nonspecific binding was estimated using 10 µM nonradioactive GTPγS. The incubation was terminated by ice-cold 50 mM HEPES (pH 7.0). The sections were desalted with ice-cold distilled water, dried, and placed in contact with an imaging plate for 2 days. Signal detection and image analysis were performed as described above.

[3] = test system: 5-HT1A receptors; conditions: maximal safe dose; cited from earlier work
[4] = rats; cited from earlier work
[5] = biological target: T1, 5-HT1A receptors; assay: In vitro ARG, inhibition of [11C]WAY-100635 binding in rat brain sections; set-up: Twenty-micrometer-thick frozen brain sections were preincubated; from tissue; host or cells: rat brain (hippocampus and raphe nucleus): frozen sections or living animals; conditions: hippocampus and raphe nucleus; up to 1000 nM
Procedure: Rats were sacrificed by decapitation. Twenty-micrometer-thick frozen brain sections were preincubated for 30 min in 50 mM Tris-HCl (pH 7.4) containing 1 mM MnCl2. […] Subsequently, the sections were rinsed twice with ice-cold Tris-HCl buffer for 5 min and then desalted with ice-cold distilled water for 10 sec. These samples were warmly blow-dried and placed in contact with an imaging plate (Fuji Film, Tokyo, Japan) for 60 min. Signals on the imaging plate were detected by BAS5000 system (Fuji Film).

[6] = biological target: T1, 5-HT1A receptors; assay: Ex vivo ARG, 5-HT1A receptor occupancy after drug administration; assay type: in vivo; set-up: Twenty-micrometer-thick frozen brain sections were preincubated; from tissue; host or cells: rat brain (hippocampus and raphe nucleus): frozen sections or living animals; conditions: for ED50: rat, ip, read-out: ED50 (5-HT1A receptor occupancy), intraperitoneal, ex vivo ARG
Procedure: Animals were then killed by decapitation 5 h and 30 min after their administration, respectively. Autoradiographic analysis was performed using procedures similar to in vitro ARG except for incubation temperature (37°C) and times for preincubation (30 sec), incubation (5 min) and rinsing (1 min). […] The doses of these drugs at half-maximal effect (ED50) were determined according to the following relationship: [drawing 2] where D is the dose of the drug.

[7] = biological target: T1, 5-HT1A receptors; assay: [11C]WAY-100635-PET, BPND and 5-HT1A receptor occupancy; assay type: in vivo; set-up: Twenty-micrometer-thick frozen brain sections were preincubated; from tissue; host or cells: rat brain (hippocampus and raphe nucleus): frozen sections or living animals; conditions: for BPND Hippocampus / BPND Raphe: [11C]WAY-100635; for receptor occupancy at 3 mg/kg / ED50 / receptor occupancy at 1 mg/kg / receptor occupancy at 10 mg/kg / receptor occupancy at 30 mg/kg: rat, ip; for ED50: read-out: ED50 (5-HT1A receptor occupancy), intraperitoneal, PET
Procedure: All PET scans were carried out using a microPET Focus 220 scanner (Siemens Medical Solutions USA, Knoxville, TN). The rats were anesthetized with 1.5–2% isoflurane in air (2 L/min flow rate). […] All list-mode data were stored into 3D sinograms, which were then Fourier-rebinned into 2D sinograms (26 frames: 4×1, 8×2, and 14×5 min). Images were reconstructed using 2D-filtered back-projection with a 0.5-mm Hanning filter. All PET images were manually coregistered to the MRI template by spatial translation and rotation of original PET images without geometric expansion and contraction. ROIs were placed on the hippocampus and raphe nucleus using PMOD® image analysis software (PMOD Group, Zurich, Switzerland) with reference to the MRI template. Fine-tuning of the location of ROIs was then performed based on PET images at an early phase (0–30 min) of the scan in order to compensate for small mismatches between coregistered PET and MR images. The cerebellum was used as reference tissue because of its negligible density of 5-HT1A receptors.

[8] = humans; cited from earlier work
[9] = 1 mg/kg intraperitoneal, about 30 min before scan, mean ± S.E.
[10] = 3 mg/kg intraperitoneal + 30 mg/kg fluvoxamine (FLV) oral 30 min before pindolol, mean ± S.E.
[11] = 3 mg/kg intraperitoneal, about 30 min before scan, mean ± S.E.
[12] = 10 mg/kg intraperitoneal, about 30 min before scan, mean ± S.E.
[13] = 30 mg/kg intraperitoneal, about 30 min before scan, mean ± S.E.
[14] = read-out: Occupancy (%) Hippocampus

Structure (SMILES): NCCc1c[nH]c2c(O)cc(O)cc12 [5,7-DHT, 5,7-dihydroxytryptamine, reference compound]
- BPND for [11C]WAY-100635 after toxicant treatment ([1]; hippocampus): almost unchanged
- BPND for [11C]WAY-100635 after toxicant treatment ([1]; raphe nucleus): profoundly decreased

Structure (SMILES): CCCN(CCC)C1CCc2cccc(O)c2C1 (stereo not drawn) [8-OH-DPAT, 8-hydroxy-2-(di-n-propylamino) tetralin]
- [35S]GTPγS binding ([2]; hippocampus and raphe nucleus, addition of agonist): enhanced
- [35S]GTPγS binding compared with 1 µM WAY-100635 ([2]; raphe nucleus, 1 µM, p<0.01): significantly increased

Structure (SMILES): CC(C)NCC(O)COc1cccc2[nH]ccc12 (stereo not drawn) [Pindolol, reference compound]
- Occupancy of 5-HT1A autoreceptors [3]: 60%
- Proportion of protein-bound drug in plasma or serum [4]: 52%
- Blockage of 5-HT1A receptors by excess amounts of drug [5]: near-complete blockage
- 5-HT1A receptor binding (occupancy), dose-dependent up to ([6]; intraperitoneal, 30 min after administration, irrespective of region): ~70%
- ED50 ([6]; hippocampus): 8.5 mg/kg
- ED50 ([6]; raphe nucleus): 7.3 mg/kg
- Slight increase in [35S]GTPγS binding ([2]; high concentrations, hippocampus and raphe nucleus, p>0.05): not statistically significant
- BPND Hippocampus [7, 9]: 4.787±0.676
- BPND Raphe [7, 9]: 1.129±0.164
- BPND Hippocampus [7, 10]: 3.670±0.315
- BPND Raphe [7, 10]: 0.783±0.178
- BPND Hippocampus [7, 11]: 3.517±0.119
- BPND Raphe [7, 11]: 0.752±0.093
- BPND Hippocampus [7, 12]: 2.190±0.757
- BPND Raphe [7, 12]: 0.459±0.153
- BPND Raphe ([7]; 30 mg/kg intraperitoneal + 30 mg/kg fluvoxamine (FLV) oral 30 min before pindolol): 0
- BPND Hippocampus ([7]; 30 mg/kg intraperitoneal + 30 mg/kg fluvoxamine (FLV) oral 30 min before pindolol, mean ± S.E.): 0.343±0.065
- BPND Hippocampus [7, 13]: 0.441±0.173
- BPND Raphe [7, 13]: 0.029±0.029
- receptor occupancy at 3 mg/kg ([7]; read-out: Difference in occupancy between hippocampus and raphe nucleus): ~50%
- ED50 ([7]; hippocampus): 5.6 mg/kg
- ED50 ([7]; raphe nucleus): 2.4 mg/kg
- receptor occupancy at 1 mg/kg [7, 14]: 15 ± 11.8%
- receptor occupancy at 3 mg/kg [7, 14]: 37 ± 5.6%
- receptor occupancy at 10 mg/kg [7, 14]: 58.1 ± 18.4%
- receptor occupancy at 30 mg/kg [7, 14]: 91.8 ± 3.4%
- receptor occupancy at 1 mg/kg ([7]; read-out: Occupancy (%) Raphe): 33.7 ± 14.5%
- receptor occupancy at 3 mg/kg ([7]; read-out: Occupancy (%) Raphe): 57.3 ± 2.8%
- receptor occupancy at 10 mg/kg ([7]; read-out: Occupancy (%) Raphe): 69.6 ± 14.6%
- receptor occupancy at 30 mg/kg ([7]; read-out: Occupancy (%) Raphe): 98.3 ± 1.7%
- Proportion of protein-bound drug in plasma or serum [8]: 57%

Structure (SMILES): COCCCC/C(=N\OCCN)c1ccc(C(F)(F)F)cc1 [fluvoxamine, reference compound]
- Effect on 5-HT1A receptor occupancies by pindolol ([7]; 30 mg/kg oral, 30 min before pindolol treatment): had no effect
